This passage reports EC50 and ID50 results from ChEMBL document CHEMBL1121734, “New synthesis of N-[4-[[(2-amino-4(3H)-oxopyrido[3,2-d]pyrimidin-6-yl)methyl]amino]benzoyl]-L-glutamic acid (8-deazafolic acid) and the preparation of some 5,6,7,8-tetrahydro derivatives” (1981).

Molecules are shown by their SMILES.

Experiment [1] relates to Epidermoid carcinoma cell line. As to the kind of experiment: Concentration required for inhibition of colony formation (cytotoxicity) against human epidermoid carcinoma cell number 2. As to conditions: read-out: ED50 (the source's name). The format is functional.
For experiment [2], the target named is T1, Dihydrofolate reductase (Bos taurus) (UniProt P00376).
T1 sequence (whole entry): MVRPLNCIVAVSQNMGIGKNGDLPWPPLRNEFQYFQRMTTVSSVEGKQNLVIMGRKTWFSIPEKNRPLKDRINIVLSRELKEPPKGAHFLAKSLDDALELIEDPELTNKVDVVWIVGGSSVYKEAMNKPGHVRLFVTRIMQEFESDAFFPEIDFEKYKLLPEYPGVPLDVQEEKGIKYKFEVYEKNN
Description: Inhibition of bovine dihydrofolate reductase

Consider `CN(Cc1cnc2nc(N)nc(N)c2n1)c1ccc(C(=O)N[C@@H](CCC(=O)O)C(=O)O)cc1` [METHOTREXATE], for which, in experiment [1], the EC50 was determined as 0.001 µM.

As to `Nc1nc(O)c2nc(C(=O)Nc3ccc(C(=O)NC(CCC(=O)O)C(=O)O)cc3)ccc2n1` (configuration not stated), the EC50 in experiment [1] amounted to 100 µM.

As to `Nc1nc(O)c2c(n1)CCC(CN(C=O)c1ccc(C(=O)NC(CCC(=O)O)C(=O)O)cc1)N2` (configuration not stated), the EC50 in experiment [1] came out at 28 µM.

With `Nc1nc(O)c2c(n1)CCC1CN(c3ccc(C(=O)NC(CCC(=O)O)C(=O)O)cc3)C=[N+]21` (configuration not stated), the EC50 in experiment [1] was found to be 8 µM. Further, the ID50 in experiment [2] stood at 4.6 µM.

Take `Nc1nc(O)c2nc(CNc3ccc(C(=O)NC(CCC(=O)O)C(=O)O)cc3)ccc2n1` (configuration not stated): in experiment [1], the EC50 was found to be 23 µM.

In the case of `Nc1nc(O)c2nc(CN(C=O)c3ccc(C(=O)NC(CCC(=O)O)C(=O)O)cc3)ccc2n1` (configuration not stated), in experiment [1], the EC50 stood at 32 µM.
